Broadly, the IC50 is the concentration needed to halve the response being measured. Lower therefore signals higher potency. Broadly, the inhibition is the drop in the measured response relative to a control, in per cent.

Consider 22 molecules from patent publication US20210261583A1, “Synthetic Cytotoxic Molecules, Drugs, Methods of Their Synthesis and Methods of Treatment” (The Regents of the University of California, priority 2018, published 2021).

Each structure is given as a SMILES string. Where a name gives a salt, the structure may show the parent alone. Read-outs that look alike come from different tables or passages of the source.

One series deals with cancer cells. In words: Cytotoxicity (IC50). It is filed as cell-based.
The subject of the next series is CD98. In words: Nutrient transporter (CD98) down-regulation. It is filed as cell-based. As to conditions: for activity in downregulation tests: compared to hydroxy pyrrolidine ketone progenitors 20, 21, 23 and 24.
The nature of series [1]: Racemization/epimerization, deuterium incorporation and cyclization in protic solvents. It is filed as physicochemical. Particulars: dissolved in protic solvents such as water and MeOH; gives 1:1 mixture of enantiomers or epimers. As for the experimental part:
In the presence of D2O at room temperature, deuterium was incorporated at C-2 confirming a fast enolization followed by β-elimination and ring closure. […] The incorporation of deuterium is complete in 30 min at pH=10, and in 3 hours at pH=7.
It was therefore decided to further investigate this new structural analog and we prepared the bicyclic enantiopure pyrrolizidine 17 bearing the aryloctyl appendage on C-3, in analogy with our lead compound 3 as well as the monocyclic variant 18, to check the effect of the substituent position and the nature of the azacycles (FIG. 7).

Another series relates to vacuolation. The series is described as follows: Vacuolation score. Type of series: cell-based. As to conditions: for activity in vacuolation tests: compared to hydroxy pyrrolidine ketone progenitors 20, 21, 23 and 24.
Where [2] appears, read: at concentration near IC50 / where it kills 50% of cells.

In the series with cancer cells, `CCCCCCCCc1ccc(C(=O)C[C@@H]2C[C@@H](O)CN2)cc1.Cl` [Compound 11, (2S,4R)-4-Hydroxy-2-(2-(4-octylphenyl)-2-oxoethyl)pyrrolidin-1-ium chloride] gave an IC50 of 2.1 µM. Moreover, the inhibition at 2.5 µM in the series on CD98 (2.5 μM) is 22%. Moreover, the inhibition at 10 µM in the series on CD98 (10 μM) was 46%. The “racemization / epimerization after N-Boc deprotection” value in series [1] is “prone to racemization and epimerization”.

`CCCCCCCCc1ccc(C(C[C@@H]2CCCN2)OC)cc1.Cl` (single isomer, unassigned) [Compound 10, (2S)-2-(2-Methoxy-2-(4-octylphenyl)ethyl)pyrrolidine hydrochloride] returned a Vacuolation score in the series with vacuolation (2.5 μM) of 0.

Consider `CCCCCCCCc1ccc(C(=O)CC[C@H]2C[C@H](CO)CN2)cc1.Cl` [Compound 13], for which the results for the “% CD98 down-regulation” value in the series on CD98 (2.5 μM) and in the series on CD98 (10 μM) were 8% and 46%, respectively. In the series with vacuolation (2.5 μM), this molecule registered a Vacuolation score of 0.

In the series with cancer cells, `CCCCCCCCc1ccc(C(=O)CC[C@@H]2C[C@@H](O)CN2)cc1` [Compound 15, (2R,4R)-4-Hydroxy-2-(3-(4-octylphenyl)-3-oxopropyl)pyrrolidin-1-ium chloride] returned an IC50 of 2.1 µM. In the series with CD98 (2.5 μM), the inhibition at 2.5 µM turned out to be 15%. The inhibition at 10 µM in the series on CD98 (10 μM) worked out at 52%.

For `CCCCCCCCc1ccc(CC(=O)[C@@H]2C[C@@H](O)CN2)cc1.Cl` [Compound 23, (2S,4R)-4-Hydroxy-2-(2-(4-octylphenyl)acetyl)pyrrolidin-1-ium chloride], the IC50 with cancer cells came to 18.6 µM. The inhibition at 2.5 µM with CD98 (2.5 μM) turned out to be 13%. Besides, in the series on CD98 (10 μM), the inhibition at 10 µM was determined as 23%. Also, the inhibition at 40 µM with CD98 (40 μM) is 59%. Moreover, the Vacuolation score with vacuolation (2.5 μM) and with vacuolation (10 μM) was 0 each time.

For `CCCCCCCCc1ccc(CC(O)[C@H]2C[C@H](O)CN2)cc1.Cl` (stereo partly drawn) [Compound 26, (2R,4S)-4-Hydroxy-2-(1-hydroxy-2-(4-octylphenyl)ethyl)pyrrolidin-1-ium chloride], in the series on cancer cells, it took 1.8 µM to reach half-maximal inhibition (IC50). In the series on CD98 (2.5 μM), the inhibition at 2.5 µM came to 9%. Further, in the series with CD98 (10 μM), the inhibition at 10 µM turned out to be 62%. The nutrient transporter down-regulation entry in the series on CD98 (setting [2]) is recorded as “does not down-regulate nutrient transporter proteins”. The same molecule came in with a Vacuolation score with vacuolation (2.5 μM) of 0. Further, the vacuolation entry in the series with vacuolation (setting [2]) is “does not down-regulate nutrient transporter proteins or vacuolate”.

For `CCCCCCCCc1ccc(C[C@@H]2C[C@@H](O)CN2)cc1` [Compound 16, (3R,5R)-5-(4-Octylbenzyl)pyrrolidin-3-ol], the IC50 in the series with cancer cells is 2.2 µM. In the series with CD98 (2.5 μM), the inhibition at 2.5 µM is 40%. In the series on CD98 (10 μM), the inhibition at 10 µM worked out at 63%.

Regarding `CCCCCCCCc1ccc(C(=O)[C@@H]2C[C@@H](O)CN2)cc1.Cl` [Compound 20, (2S,4R)-4-Hydroxy-2-(4-octylbenzoyl)pyrrolidin-1-ium chloride], 28.1 µM corresponded to half-maximal inhibition in the series on cancer cells (IC50). Besides, the inhibition at 2.5 µM in the series with CD98 (2.5 μM) worked out at 2%. Besides, the inhibition at 10 µM in the series on CD98 (10 μM) turned out to be 9%. Further, the inhibition at 40 µM in the series on CD98 (40 μM) worked out at 48%. The molecule further gave a Vacuolation score in the series with vacuolation (2.5 μM) of 0.

In the series with cancer cells, `CCCCCCCCc1ccc(CC(=O)[C@H]2C[C@H](OP(=O)(O)O)CN2)cc1.Cl` [Compound 32, (2R,4S)-2-(2-(4-Octylphenyl)acetyl)-4-(phosphonooxy)pyrrolidin-1-ium chloride] yielded a half-inhibitory concentration (IC50) of 25.3 µM. In addition, in the series on CD98 (10 μM), the inhibition at 10 µM is 5%. For the same molecule, in the series on CD98 (40 μM), the inhibition at 40 µM is 8%. For the same molecule, in the series on CD98, the “activity in downregulation tests” value was “totally inactive”. Further, the Vacuolation score in the series on vacuolation (10 μM) and with vacuolation (40 μM) was 0 in each case. The “activity in vacuolation tests” value in the series on vacuolation was “totally inactive”.

In the series with cancer cells, `CCCCCCCCc1ccc(C(=O)[C@@H]2C[C@@H](OP(=O)(O)O)CN2)cc1.Cl` [Compound 29, (2S,4R)-2-(4-Octylbenzoyl)-4-(phosphonooxy)pyrrolidin-1-ium chloride] yielded an IC50 of 12.9 µM. Moreover, the “% CD98 down-regulation” value in the series with CD98 (10 μM) was 3%; with CD98 (40 μM), −8%. The “activity in downregulation tests” value in the series with CD98 is “totally inactive”. For the same molecule, the Vacuolation score in the series on vacuolation (2.5 μM), in the series on vacuolation (10 μM) and with vacuolation (40 μM) was 0 each time. Besides, in the series on vacuolation, the “activity in vacuolation tests” value is “totally inactive”.

As for `CCCCCCCCc1ccc([C@@H]2CCC3C[C@H](CO)CN32)cc1.Cl` (stereo partly drawn) [Compound 14, ((2S,5S)-5-(4-Octylphenyl)hexahydro-1H-pyrrolizin-2-yl)methanol hydrochloride], the IC50 with cancer cells stood at 12.4 µM; with cancer cells (hydrochloride), 12.2 µM. Besides, the inhibition at 2.5 µM in the series on CD98 (2.5 μM) came out at 0%. The inhibition at 10 µM with CD98 (10 μM) was determined as 32%. The inhibition at 40 µM in the series with CD98 (40 μM) stood at 68%. Moreover, the Vacuolation score with vacuolation (2.5 μM) and in the series on vacuolation (10 μM) was 0 throughout.

The molecule `CCCCCCCCc1ccc(CC[C@@H]2CCCN2)cc1` [Compound 9, (R)-2-(4-Octylphenethyl)pyrrolidine hydrochloride] came in with an IC50 in the series on cancer cells of 2.8 µM. Besides, in the series with CD98 (2.5 μM), the inhibition at 2.5 µM was determined as 41%. Besides, the inhibition at 10 µM with CD98 (10 μM) worked out at 63%.

As for `CCCCCCCCc1ccc(CC(=O)[C@@H]2C[C@@H](OP(=O)(O)O)CN2)cc1.Cl` [Compound 31, (2S,4R)-2-(2-(4-Octylphenyl)acetyl)-4-(phosphonooxy)pyrrolidin-1-ium chloride], inhibition in the series with cancer cells was half-maximal at 25 µM (IC50). Moreover, in the series on CD98 (10 μM), the inhibition at 10 µM came out at 3%. The inhibition at 40 µM with CD98 (40 μM) turned out to be 0%. In addition, in the series on CD98, the “activity in downregulation tests” value was “totally inactive”. In addition, the Vacuolation score in the series with vacuolation (10 μM) and in the series with vacuolation (40 μM) was 0 throughout. In addition, in the series with vacuolation, the “activity in vacuolation tests” value is “totally inactive”.

In the series with cancer cells, `CCCCCCCCc1ccc(C(=O)[C@@H]2C[C@@H](OP(=O)(O)O)CN2)cc1.Cl` [Compound 30, (2S,4R)-2-(4-Octylbenzoyl)-4-(phosphonooxy)pyrrolidin-1-ium chloride] returned an IC50 of 12.8 µM. Besides, the “% CD98 down-regulation” value is −9% with CD98 (10 μM) and −0% in the series with CD98 (40 μM). In addition, the “activity in downregulation tests” value in the series with CD98 was “totally inactive”. Besides, the Vacuolation score with vacuolation (2.5 μM), with vacuolation (10 μM) and in the series on vacuolation (40 μM) was 0 each time. Also, the “activity in vacuolation tests” value in the series on vacuolation was “totally inactive”.

As to `CCCCCCCCc1ccc(C(=O)CC[C@H]2C[C@H](CO)CN2)cc1.Cl` [Compound 13, 3-(2S,4S)-4-(Hydroxymethyl)pyrrolidin-2-yl)-1-(4-octylphenyl)propan-1-one hydrochloride], it took 4 µM to reach half-maximal inhibition in the series with cancer cells (IC50).

`CCCCCCCCc1ccc(CC(=O)[C@H]2C[C@H](O)CN2)cc1.Cl` [Compound 24, (2R,4S)-4-Hydroxy-2-(2-(4-octylphenyl)acetyl)pyrrolidin-1-ium chloride]: in the series on cancer cells, the IC50 came out at 17.1 µM. For the same molecule, in the series with CD98 (2.5 μM), the inhibition at 2.5 µM was 11%. Further, the inhibition at 10 µM with CD98 (10 μM) is 16%. The inhibition at 40 µM in the series with CD98 (40 μM) turned out to be 54%. Moreover, the Vacuolation score with vacuolation (2.5 μM) and in the series on vacuolation (10 μM) was 0 each time.

In the case of `CCCCCCCCc1ccc([C@H]2CCN[C@@H]2CO)cc1.Cl` [Compound 3, reference compound], in the series on cancer cells, the IC50 turned out to be 2.1 µM. In addition, the “% CD98 down-regulation” value in the series with CD98 (2.5 μM) is 42%; in the series on CD98 (10 μM) it was 66%.

Consider `CCCCCCCCc1ccc(CC(O)[C@@H]2C[C@@H](O)CN2)cc1` (stereo partly drawn) [Compound 25, (2S,4R)-4-Hydroxy-2-(1-hydroxy-2-(4-octylphenyl)ethyl)pyrrolidin-1-ium chloride], for which, in the series with cancer cells, the IC50 was found to be 3 µM. Besides, in the series on CD98 (2.5 μM), the inhibition at 2.5 µM turned out to be 19%. In addition, the inhibition at 10 µM in the series with CD98 (10 μM) was 62%.

On to `CCCCCCCCc1ccc(C(=O)[C@H]2C[C@H](O)CN2)cc1.Cl` [Compound 21, (2R,4S)-4-Hydroxy-2-(4-octylbenzoyl)pyrrolidin-1-ium chloride], for which, in the series with cancer cells, the IC50 is 15.3 µM. Further, the inhibition at 2.5 µM in the series on CD98 (2.5 μM) came out at 12%. The inhibition at 10 µM in the series on CD98 (10 μM) came out at 51%. For the same molecule, in the series on CD98 (40 μM), the inhibition at 40 µM turned out to be 41%. The Vacuolation score with vacuolation (2.5 μM) came to 0. The “vacuolation (in words)” value in the series on vacuolation (10 μM) is “reached maximum vacuolation”.

`CCCCCCCCc1ccc(C(=O)[C@H]2C[C@H](CO)CN2)cc1.Cl` [Compound 22, ((2R,4S)-4-(Hydroxymethyl)pyrrolidin-2-yl)(4-octylphenyl)methanone hydrochloride]: 19.6 µM corresponded to half-maximal inhibition in the series on cancer cells (IC50). For the same molecule, the inhibition at 2.5 µM in the series with CD98 (2.5 μM) came to 0%. The inhibition at 10 µM in the series with CD98 (10 μM) stood at 19%. Besides, in the series on CD98 (40 μM), the inhibition at 40 µM stood at 61%. In addition, the Vacuolation score in the series on vacuolation (2.5 μM) and in the series on vacuolation (10 μM) was 0 each time.

For `CCCCCCCCc1ccc(C(C[C@@H]2CCCN2)OC)cc1.Cl` (single isomer, unassigned) [Compound 10, hydrochloride], 3 µM corresponded to half-maximal inhibition with cancer cells (IC50). Moreover, in the series with CD98 (2.5 μM), the inhibition at 2.5 µM was 15%. Also, in the series on CD98 (10 μM), the inhibition at 10 µM was 58%.

With `CCCCCCCCc1ccc(C(=O)[C@@H]2CCCN2)cc1.Cl` [Compound 19, (S)-2-(4-Octylbenzoyl)pyrrolidin-1-ium chloride], the inhibition at 2.5 µM with CD98 (2.5 μM) was -21%. In addition, in the series on CD98 (10 μM), the inhibition at 10 µM was -4%. Besides, the inhibition at 40 µM in the series with CD98 (40 μM) came out at 33%. For the same molecule, the Vacuolation score with vacuolation (2.5 μM) and with vacuolation (10 μM) was 0 in each case.
